Measurements taken from US10647680B2, “Urea compound, preparation method therefor and medical use thereof” (Ancureall Pharmaceutical (Shanghai) Co., Ltd., priority 2016, dated 2020).

Experiments:
[1] = tested on: MV4-11 (FLT3 ITD+/+ mutant type); test: In vitro growth inhibition (GI50), MV4-11; format: cell-based, human; conditions: Homo sapiens, MV4-11; Cell lines of leukemia; read-out: GI 50 MV4-11 FLT3 (ITD +/+)
[2] = tested on: MOLM-13 (FLT3 ITD+/− mutant type); test: In vitro growth inhibition (GI50), MOLM-13; format: cell-based, human; conditions: Homo sapiens, MOLM-13; Cell lines of leukemia; read-out: GI 50 MOLM-13 FLT3 (ITD+/−)
[3] = tested on: RS4; 11 (FLT3 wild type); test: In vitro growth inhibition (GI50), RS4; 11; format: cell-based, human; conditions: Homo sapiens, RS4-11; Cell lines of leukemia; read-out: GI 50 RS4: 11 FLT3 (WT)
[4] = tested on: K562 (FLT3 negative expression, positive expression of BCR-ABL fusion protein); test: In vitro growth inhibition (GI50), K562; format: cell-based; conditions: Homo sapiens, Cell lines of leukemia, read-out: GI 50 K562 BCR-ABL
[5] = tested on: RAMOS (positive expression of Brutons tyrosine protein kinase); test: In vitro growth inhibition (GI50), RAMOS; format: cell-based; conditions: Homo sapiens, Cell lines of leukemia, read-out: GI 50 Ramos BTK
[6] = tested on: U937 (FLT3 wild-type); test: In vitro growth inhibition (GI50), U937; format: cell-based; conditions: Homo sapiens, U-937; Cell lines of leukemia; read-out: GI 50 U937 FLT 3(WT)
[7] = tested on: Kasumi-1 (c-Kit N822K mutant type); test: In vitro growth inhibition (GI50), Kasumi-1; format: cell-based; conditions: Homo sapiens, Cell lines of leukemia, read-out: GI 50 Kasumi-1 Kit (N822K)
In short: (§1)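 Cells in RPMI1640 with 10% FBS, seeded at 5–10×10^4 cells/mL, exposed next day to compound at 5,000 nM down to 0.01 nM (2- or 10-fold dilutions, ≤1% solvent) for 3–5 days at 37 °C. CCK8 absorbance at 450 nm, growth rate relative to pre-treatment and solvent controls, GI50 from concentration–growth curve.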

[8] = tested on: KG-1 (expressing FGFR1OP2-FGFR1 fusion protein); test: In vitro growth inhibition (GI50), KG-1; format: cell-based; conditions: Homo sapiens; Cell lines of leukemia; read-out: GI 50 KG-1 FGFR1OP 2-FGFR1
[9] = tested on: HL-60 (FLT3 wild type); test: In vitro growth inhibition (GI50), HL-60; format: cell-based; conditions: Homo sapiens, Cell lines of leukemia, read-out: GI 50 HL60 FLT3 (WT)
In short: as §1

[10] = tested on: OCI-AML3 (NPMc+ mutant type); test: In vitro growth inhibition (GI50), OCI-AML3; format: cell-based; conditions: Homo sapiens, OCI-AML-3; Cell lines of leukemia; read-out: GI 50 OCI- AML3 NPMc+

Row | Compound | GI50 [1] | GI50 [2] | GI50 [3] | GI50 [4] | GI50 [5] | GI50 [6] | GI50 [7] | GI50 [8] | GI50 [9] | GI50 [10]
1 | CN1CCN(CCCOc2ccc3c(c2)ncn3-c2ccc(NC(=O)Nc3cc(C(C)(C)C)n[nH]3)cc2)CC1 [Compound 92, 1-(5-tert-butyl-2H-pyrazol-3-yl)-3-(4-{5-[3-(4-methyl-piperazin-1-yl)-propoxyl]-benzimidazol-1-yl}-phenyl)-urea] | 0.0001 to 0.001 µM | 0.0001 to 0.001 µM | 0.01 to 0.1 µM | > 1 µM | 0.1 to 1 µM | 0.1 to 1 µM | > 1 µM | > 1 µM | > 1 µM | > 1 µM
2 | CC1(COc2ccc3c(c2)ncn3-c2ccc(NC(=O)Nc3cc(C(C)(C)C)n[nH]3)cc2)COC1 [Compound 85, 1-(5-tert-butyl-2H-pyrazol-3-yl)-3-{4-[5-(3-methyl-oxetane-3-ylmethoxy)-benzimidazol-1-yl]-phenyl]urea] | 0.0001 to 0.001 µM | 0.0001 to 0.001 µM | > 1 µM | > 1 µM | > 1 µM | > 1 µM | > 1 µM | > 1 µM | > 1 µM | > 1 µM
3 | CC(C)(C)c1cc(NC(=O)Nc2ccc(-n3cnc4cc(OCCN5CCCCCC5)ccc43)cc2)[nH]n1 [Compound 91, 1-{4-[5-(2-azepan-1-yl-ethoxy)-benzimidazol-1-yl]-phenyl}-3-(5-tert-butyl-2H-pyrazol-3-yl)-urea] | 0.0001 to 0.001 µM | 0.0001 to 0.001 µM | > 1 µM | > 1 µM | > 1 µM | > 1 µM | > 1 µM | > 1 µM | > 1 µM | > 1 µM
4 | Cc1csc(NC(=O)Nc2ccc(-n3cnc4ccccc43)cc2)n1 [Compound 61, 1-(4-benzimidazol-1-yl-phenyl)-3-(4-methyl-thiazol-2-yl)-urea] | > 1 µM | > 1 µM | > 1 µM | > 1 µM | > 1 µM | > 1 µM | > 1 µM | > 1 µM | > 1 µM | > 1 µM
5 | Cn1nc(C(C)(C)C)cc1NC(=O)Nc1ccc(-n2cnc3ccccc32)cc1 [Compound 100, 1-(4-benzimidazol-1-yl-phenyl)-3-(5-tert-butyl-2-methyl-2H-pyrazol-3-yl)-urea] | 0.0001 to 0.001 µM | 0.0001 to 0.001 µM | > 1 µM | > 1 µM | > 1 µM | > 1 µM | > 1 µM | > 1 µM | > 1 µM | > 1 µM
6 | CC(C)(C)c1nnc(NC(=O)Nc2ccc(-n3cnc4ccccc43)cc2)s1 [Compound 63, 1-(4-benzimidazol-1-yl-phenyl)-3-(5-tert-butyl-[1,3,4]thiadiazole-2-yl)-urea] | 0.001 to 0.01 µM | 0.001 to 0.01 µM | > 1 µM | > 1 µM | > 1 µM | > 1 µM | > 1 µM | > 1 µM | > 1 µM | > 1 µM
7 | CC(C)(C)c1cc(NC(=O)Nc2cnc(-n3cnc4ccccc43)nc2)no1 [Compound 43, 1-(2-benzimidazol-1-yl-pyrimidin-5-yl)-3-(5-tert-butyl-isoxazol-3-yl)-urea] | 0.01 to 0.1 µM | 0.01 to 0.1 µM | > 1 µM | > 1 µM | > 1 µM | > 1 µM | > 1 µM | > 1 µM | > 1 µM | > 1 µM
8 | O=C(Nc1ccc(-n2cnc3ccccc32)cc1)Nc1ccon1 [Compound 1, 1-(4-benzimidazol-1-yl-phenyl)-3-isoxazol-3-yl-urea] | > 1 µM | > 1 µM | > 1 µM | > 1 µM | > 1 µM | > 1 µM | > 1 µM | > 1 µM | > 1 µM | > 1 µM
9 | COCCOc1ccc2ncn(-c3ccc(NC(=O)Nc4cc(C(C)(C)C)on4)cc3)c2c1 [Compound 26, 1-(5-tert-butyl-isoxazol-3-yl)-3-{4-[6-(2-methoxyl-ethoxyl)-benzimidazol-1-yl]-phenyl]urea] | 0.0001 to 0.001 µM | 0.0001 to 0.001 µM | 0.1 to 1 µM | 0.1 to 1 µM | > 1 µM | > 1 µM | > 1 µM | > 1 µM | > 1 µM | > 1 µM
10 | CC(C)(C)c1cc(NC(=O)Nc2ccc(-n3cnc4cc(OCC5CCCO5)ccc43)cc2)[nH]n1 (centres unmarked) [Compound 86, 1-(5-tert-butyl-2H-pyrazol-3-yl)-3-{4-[5-(tetrahydrofuran-2-ylmethoxy)-benzimidazol-1-yl]-phenyl}-urea] | 0.0001 to 0.001 µM | 0.0001 to 0.001 µM | > 1 µM | > 1 µM | > 1 µM | > 1 µM | > 1 µM | > 1 µM | 0.1 to 1 µM | > 1 µM
11 | COc1cc2ncn(-c3ccc(NC(=O)Nc4cc(C(C)(C)C)n[nH]4)cc3)c2cc1OC [Compound 99, 1-(5-tert-butyl-2H-pyrazol-3-yl)-3-[4-(5,6-dimethoxyl-benzimidazol-1-yl)-phenyl]-urea] | 0.0001 to 0.001 µM | 0.0001 to 0.001 µM | > 1 µM | > 1 µM | > 1 µM | > 1 µM | > 1 µM | > 1 µM | > 1 µM | > 1 µM
12 | CC(C)(C)c1cc(NC(=O)Nc2ccc(-n3cnc4ccccc43)cc2)n(-c2ccccn2)n1 [Compound 110, 1-(4-benzimidazol-1-yl-phenyl)-3-(5-tert-butyl-2-pyridin-2-yl-2H-pyrazol-3-yl)-urea] | 0.01 to 0.1 µM | 0.01 to 0.1 µM | > 1 µM | > 1 µM | > 1 µM | > 1 µM | > 1 µM | > 1 µM | > 1 µM | > 1 µM
13 | O=C(Nc1ccc(-n2cnc3ccccc32)cc1)Nc1cc(-c2ccccc2)[nH]n1 [Compound 65, 1-(4-benzimidazol-1-yl-phenyl)-3-(5-phenyl-1H-pyrazol-3-yl)-urea] | 0.1 to 1 µM | 0.1 to 1 µM | > 1 µM | > 1 µM | > 1 µM | > 1 µM | > 1 µM | > 1 µM | > 1 µM | > 1 µM
14 | CNC(=O)c1cc(Oc2ccc3c(c2)ncn3-c2ccc(NC(=O)n3nc(C(C)(C)C)cc3N)cc2)ccn1 [Compound 127, 4-(1-{4-[(5-amino-3-tert-butyl-pyrazol-1-carbonyl)-amino]-phenyl}-1H-benzimidazol-5-yloxy)-pyridin-2-carboxylic acid methylamide] | 0.1 to 1 µM | 0.1 to 1 µM | > 1 µM | > 1 µM | > 1 µM | > 1 µM | > 1 µM | > 1 µM | > 1 µM | > 1 µM
15 | CC(C)(C)c1cc(NC(=O)Nc2ccc(-n3cnc4ncccc43)cc2)no1 [Compound 56, 1-(5-tert-butyl-isoxazol-3-yl)-3-(4-imidazo[4,5-b]pyridin-1-yl-phenyl)-urea] | 0.01 to 0.1 µM | 0.01 to 0.1 µM | > 1 µM | > 1 µM | > 1 µM | > 1 µM | > 1 µM | 0.1 to 1 µM | > 1 µM | > 1 µM
16 | Nc1cc(C2CC2)nn1C(=O)Nc1ccc(-n2cnc3ccccc32)cc1 [Compound 114, 5-amino-3-cyclopropylpyrazol-1-formic acid (4-benzimidazol-1-yl-phenyl)-amide] | 0.1 to 1 µM | 0.1 to 1 µM | > 1 µM | > 1 µM | > 1 µM | > 1 µM | > 1 µM | > 1 µM | > 1 µM | > 1 µM
17 | COc1ncnc2c1ncn2-c1ccc(NC(=O)Nc2cc(C(C)(C)C)on2)cc1 [Compound 58, 1-(5-tert-butyl-isoxazol-3-yl)-3-[4-(6-methoxylpurin-9-yl)-phenyl]-urea] | 0.01 to 0.1 µM | 0.01 to 0.1 µM | > 1 µM | > 1 µM | > 1 µM | > 1 µM | > 1 µM | > 1 µM | > 1 µM | > 1 µM
